Results on two molecules are retold here after patent US20160213041A1, “NUTRITIONAL COMPOSITION HAVING LIPOPHILIC COMPOUNDS WITH IMPROVED SOLUBILITY AND BIOAVAILABILITY” (ABBOTT LABORATORIES, priority 2013, published 2016).

Data set [1] can be described thus: Centrifugation/ultrafiltration analysis of lutein and MDG in MDG batches (Example 60). The format is physicochemical. Conditions: centrifugation at 1,000×g, samples with NFDM. As for the experimental part:
A study was conducted to further investigate the distribution of lutein and MDG within the nutritional composition. Samples included MDG/lutein/water; MDG/lutein/NFDM/water; MDG/lutein/WPC/water; and MDG/water.
The premixes were provided as follows: in samples that contained lutein, lutein was heated for 2 h at 50° C. with shaking. […] In samples that contained protein, non-fat dried milk was added to water (50-60° C.) with agitation and allowed to hydrate for approximately 10 min.
The samples were prepared as follows: for solution 1, water was heated to 50-60° C., an lutein in GMO-40 blend and turrax (30 sec 10000 rpm) was added; for solution 2, NFDM was placed in water solution heated to 50-60° C., and lutein was added in GMO-40 blend and turrax (30 sec 10000 rpm); for solution 3, water was heated to 50-60° C., and GMO-40 blend and turrax (30 sec 10000 rpm) was added. The solutions are listed in the table below as X.1, wherein 1 is the solution.
Samples were formulated as detailed above, and then characterized by ultrafiltration with various membranes, as well as ultracentrifuged at various times and speed (e.g., 100,000×g, 4,500×g, and 1,000×g). The details of the different centrifugation/filtration method are listed below. […]

A short description of data set [2]: Distribution of lutein and MDG over cream, aqueous and pellet layers after 100,000×g (Example 58). The format is physicochemical. Conditions: 100,000×g for 1 hour. As for the experimental part:
A study was conducted to investigate the distribution of lutein and MDG within the nutritional compositions. Sample were prepared using homogenization at 150/20 bar, and then centrifuged at 100,000×g for 1 hour. The different layers (e.g., cream, aqueous, and pellet) were then analyzed for the presence of lutein and MDG.

For data set [3] the following is noted: 33° C.; cited from earlier work.

Take `CC1=C[C@H](O)CC(C)(C)[C@H]1/C=C/C(C)=C/C=C/C(C)=C/C=C/C=C(C)/C=C/C=C(C)/C=C/C1=C(C)C[C@@H](O)CC1(C)C` [lutein]: the “lutein found in the aqueous phase” value in data set [1] is recorded as about 20%. In addition, the “lutein contained in the pellet” value in data set [2] is reported as “approximately 1%”. Also, the “present in the aqueous phase following centrifugation” value in data set [2] (nutritional compositions comprising MDG, of the nutritional composition) is reported as “approximately 4 wt %”.
In the case of vitamin E, the “reported solubility limit in water” value in data set [3] was 20.9 mg/kg.
